The values that follow come from patent US4026896A, “Aromatic amidocarboxylic acids and pharmaceutical compositions thereof” (Kissei Yakuhin Kogyo Kabushiki Kaisha (Kissei …, priority 1974, dated 1977).

The first assay relates to homologous passive cutaneous anaphylaxis (PCA). As to the kind of experiment: Homologous passive cutaneous anaphylaxis (PCA) in rats, test compounds given orally. The assay is classed as in vivo, Wistar male rats. To be noted: po; rat, 200 mg/kg p.o., 2 hours prior to injection of antigen and Evans blue; read-out: INHIBITION (%) of PCA (amount of dye leaked vs control group). As for the experimental part: "Homologous passive cutaneous anaphylaxis (PCA) in rats."
Wistar male rats weighing from 120 to 150 g were used in the present experiment. Reaginic antibody was obtained from rats immunized with 2,4-dinitrophenyl-coupled ascaris extract (DNP-As) mixed with Bordetella pertussis. Normal rats were sensitized passively with an intradermal injection of the diluted antiserum. After 48 hours of the sensitization, the mixture of antigen (DNP-As) and Evans blue was injected intravenously. The animals were sacrificed by a blow on the head 30 minutes after challenging with antigen. The area blued as a result of PCA was excised and the amount of dye leaked was measured photometrically after the extraction of same with acetone containing sodium carbonate.
The test compounds were suspended in 0.5% aqueous solution of sodium carboxymethylcellulose (CMC) and administered 200 mg/kg p.o. 2 hours prior to the injection of a mixture of antigen and Evans blue. […] The efficacy of the test compounds to inhibit the PCA was compared with the value (%) calculated using the following formula: [formula] A: Amount of dye leaked in the control group B: Amount of dye leaked in the group treated with test compound
In the case of `COc1ccc(C(C)=CC(=O)Nc2ccccc2CC(=O)O)cc1OC` [2-(3',4'-dimethoxy-β-methylcinnamoylamino)phenylacetic], the inhibition in vivo at 200 mg/kg is 37.3%. Turning to `COc1ccc(C=CC(=O)Nc2ccccc2OCC(=O)O)cc1OC` [2-(3',4'-dimethoxycinnamoylamino)phenoxyacetic acid], the inhibition in vivo at 200 mg/kg came to 42.6%. Same read-out and setting: for `COc1ccc(C=CC(=O)Nc2ccccc2CC(=O)O)cc1OC` [2-(3',4'-dimethoxycinnamoylamino)phenylacetic acid] the value was 63.9%; for `COc1ccc(CCC(=O)Nc2ccccc2OCC(=O)O)cc1OC` [2-(3',4'-dimethoxyhydrocinnamoylamino)phenoxyacetic acid], 25.9%; for `CCCOc1ccc(C=CC(=O)Nc2ccccc2OCC(=O)O)cc1OC` [2-(3'-methoxy,4'-propoxycinnamoylamino)phenoxyacetic acid], 32.1%. The same measure, in the same setting: the value for `O=C(O)Cc1ccccc1NC(=O)C=Cc1ccc(Cl)cc1` [2-(4'-chlorocinnamoylamino)phenylacetic acid] was 53.3%; that for `O=C(C=Cc1ccccc1)Nc1cccc(C(=O)O)c1` [3-(cinnamoylamino)benzoic acid, reference compound] was 10.8%; that for `O=C(O)Cc1cccc(NC(=O)C=Cc2ccccc2)c1` [3-(cinnamoylamino)phenylacetic acid] was 39.8%. Still for that read-out and setting: the value for `O=C(O)Cc1ccc(NC(=O)C=Cc2ccc(O)cc2)cc1` [4-(4'-hydroxycinnamoylamino)phenylacetic acid] was 34.3%; that for `O=C(C=Cc1ccccc1)Nc1ccc(C(=O)O)cc1` [4-(cinnamoylamino)benzoic acid, reference compound] was 7.5%; that for `O=C(C=Cc1ccccc1)Nc1ccccc1C(=O)O` [N-cinnamoyl-anthranilic acid, reference compound] was 18.1%.

With `OCC(O)COc1ccc(Cl)cc1` (stereo not shown) [chlorphenesin, reference compound], the inhibition in vivo at 200 mg/kg turned out to be 39.7%. On the same count and under the same terms, for `COc1ccc(C=CC(=O)Nc2ccccc2CCC(=O)O)cc1OC` [β-[2-(3',4'-dimethoxycinnamoylamino)]phenylpropionic] the value was 27%; for `COc1ccc(C=CC(=O)Nc2cccc(CCC(=O)O)c2)cc1OC` [β-[3-(3',4'-dimethoxycinnamoylamino)]phenylpropionic], 47.2%.

The assay is the same for the next values; noted with them: rat, 200 mg/kg p.o., 2 hours prior to injection of antigen and Evans blue.
For `COc1ccc(C=CC(=O)Nc2ccc(CC(=O)O)cc2)cc1` [4-(4'-methoxy-β-cinnamoylamino)phenylacetic acid], the “INHIBITION (%) of PCA (amount of dye leaked vs control group)” value turned out to be 85.3%. The same measure, in the same setting: the value for `Cc1ccc(C=CC(=O)Nc2ccc(OCC(=O)O)cc2)cc1` [β-[4-(4'-methylcinnamoylamino)]phenoxyacetic acid] was 75.9%.

The next assay deals with release of chemical mediators from cells.
Assay: not given
The note with it: caused by an antigen-antibody reaction; cited from earlier work.
Regarding `O=C(O)c1cc(=O)c2c(OCC(O)COc3cccc4oc(C(=O)O)cc(=O)c34)cccc2o1` [disodium chromoglycate], the “inhibiting release of chemical mediators from cells” value is “effective for inhibiting release of chemical mediators from cells”.

In another assay the test system is experimental anaphylaxis / antiallergic effect.
Assay: not given
The note with it: oral, mammalia; known reference compounds; cited from earlier work.
In the case of `O=C(O)c1cc(=O)c2c(OCC(O)COc3cccc4oc(C(=O)O)cc(=O)c34)cccc2o1` [disodium chromoglycate], the “antiallergic effect when administered orally” value is listed as “not at all expected when this compound is administered orally”. In the case of “cinnamoylaminobenzoic acid [unsubstituted cinnamoylaminobenzoic acid]”, the “antiallergic effect when administered orally” value is recorded as “only a slightly weak antiallergic effect”.
